In US4258180A, “C6-Modified cyclodextrin sulfate salts as complement inhibitors” (American Cyanamid Company, priority 1979, dated 1981):
Structures can show the parent of a compound that is named as a salt.

Columns and labels:
Format in all cases: biochemical
[1] = system: late components of human complement (C3-C9); assay: Test Code 035 (C3-C9 inhibitor), lysis of EAC 142; conditions: serial dilution assay, twofold dilutions; higher well number indicates higher activity; N = Negative
From the text: (§1) An active inhibitor protects C2 from C1 and C4; (ii) Test Code 035 (C3-C9 inhibitor)--This test determines the ability of the late components of human complement (C3-C9) to lyse EAC 142 in the presence of appropriate dilutions of the test compound. An active inhibitor protects EAC 142 from lysis by human C3-C9; (iii) Test Code 036 (C-Shunt inhibitor)--In this test human erythrocytes rendered fragile are lysed in autologous serum via the shunt pathway activated by cobra venom factor in the presence of appropriate dilutions of the test compound. Inhibition of the shunt pathway results in failure of lysis; (iv) Forssman Vasculitis Test--Here, the well known complement dependent lesion, Forssman Vasculitis, is produced in guinea pigs by intradermal injection of rabbit anti-Forssman antiserum. The lesion is measured in terms of diameter, edema and hemorrhage and the extent to which a combined index of these is inhibited by prior intraperitoneal injection of the test compound at 200 mg/kg is then reported, unless otherwise stated; (v) Forssman Shock Test--Lethal shock is produced in guinea pigs by an i.v. injection of anti-Forssman antiserum and the harmonic mean death time of treated guinea pigs is compared with that of simultaneous controls; (vi) Complement Level Reduction Test--In this test, the above dosed guinea pigs, or others, are bled for serum and the complement level is determined in undiluted serum by the capillary tube method of U.S. Pat. No. 3,876,376 and compared to undosed control guinea pigs; and (vii) Cap 50 Test--Here, appropriate amounts of the test compound are added to a pool of guinea pig serum in vitro, after which the undiluted serum capillary tube assay referred to above is run. The concentration of compound inhibiting 50% is reported.

shunt pathway = assay: Test Code 036 (C-Shunt inhibitor), lysis of fragile human erythrocytes in autologous serum, cobra venom factor; conditions: serial dilution assay, twofold dilutions; higher well number indicates higher activity; N = Negative
From the text: as §1

activated human C1 = activated human C1 (Homo sapiens, UniProt P09871); assay: Test Code 026 (C1 inhibitor); conditions: serial dilution assay, twofold dilutions; higher well number indicates higher activity
From the text: as §1

Structure (SMILES)	035 Activity in wells [1]	036 Activity in wells (shunt pathway)	026 Activity in wells (activated human C1) [wells]
O=S(=O)(O)O[C@@H]1[C@@H](OS(=O)(=O)O)[C@H]2O[C@H]3[C@H](OS(=O)(=O)O)[C@@H](OS(=O)(=O)O)[C@@H](O[C@H]4[C@H](OS(=O)(=O)O)[C@@H](OS(=O)(=O)O)[C@@H](O[C@H]5[C@H](OS(=O)(=O)O)[C@@H](OS(=O)(=O)O)[C@@H](O[C@H]6[C@H](OS(=O)(=O)O)[C@@H](OS(=O)(=O)O)[C@@H](O[C@H]7[C@H](OS(=O)(=O)O)[C@@H](OS(=O)(=O)O)[C@@H](O[C@@H]1[C@@H](CBr)O2)O[C@@H]7CBr)O[C@@H]6CBr)O[C@@H]5CBr)O[C@@H]4CBr)O[C@@H]3CBr [α-Cyclo[6-bromo-6-deoxy]dextrin poly(H-sulfate)poly-trimethy] [α-Cyclo[6-bromo-6-deoxy]dextrin poly(H-sulfate)poly-trimethylamine salt]	2 wells	N	2
[N-]=[N+]=NC[C@H]1O[C@@H]2O[C@H]3[C@H](OS(=O)(=O)O)[C@@H](OS(=O)(=O)O)[C@@H](O[C@H]4[C@H](OS(=O)(=O)O)[C@@H](OS(=O)(=O)O)[C@@H](O[C@H]5[C@H](OS(=O)(=O)O)[C@@H](OS(=O)(=O)O)[C@@H](O[C@H]6[C@H](OS(=O)(=O)O)[C@@H](OS(=O)(=O)O)[C@@H](O[C@H]7[C@H](OS(=O)(=O)O)[C@@H](OS(=O)(=O)O)[C@@H](O[C@H]1[C@H](OS(=O)(=O)O)[C@H]2OS(=O)(=O)O)O[C@@H]7CN=[N+]=[N-])O[C@@H]6CN=[N+]=[N-])O[C@@H]5CN=[N+]=[N-])O[C@@H]4CN=[N+]=[N-])O[C@@H]3CN=[N+]=[N-] [α-Cyclo[6-azido-6-deoxy]dextrin poly(H-sulfate)poly-trimethy] [6,6',6",6'",6"",6'""-Hexaazido-6,6',6",6'",6"",6'""-hexadeoxy-α-cyclodextrin, dodecakis(H-sulfate), dodecasalt with trimethylamine]	N	N	2
N#CSC[C@H]1O[C@@H]2O[C@H]3[C@H](OS(=O)(=O)O)[C@@H](OS(=O)(=O)O)[C@@H](O[C@H]4[C@H](OS(=O)(=O)O)[C@@H](OS(=O)(=O)O)[C@@H](O[C@H]5[C@H](OS(=O)(=O)O)[C@@H](OS(=O)(=O)O)[C@@H](O[C@H]6[C@H](OS(=O)(=O)O)[C@@H](OS(=O)(=O)O)[C@@H](O[C@H]7[C@H](OS(=O)(=O)O)[C@@H](OS(=O)(=O)O)[C@@H](O[C@H]8[C@H](OS(=O)(=O)O)[C@@H](OS(=O)(=O)O)[C@@H](O[C@H]1[C@H](OS(=O)(=O)O)[C@H]2OS(=O)(=O)O)O[C@@H]8CSC#N)O[C@@H]7CSC#N)O[C@@H]6CSC#N)O[C@@H]5CSC#N)O[C@@H]4CSC#N)O[C@@H]3CSC#N [β-Cyclo[6-deoxy-6-thiocyanato]dextrin poly(H-sulfate)poly-tr] [6,6',6",6'",6"",6'"",6"""-Heptadeoxy-6,6',6",6'",6"",6'"",6""-heptathiocyanato-β-cyclodextrin, tetradecakis(H-sulfte), tetradecasalt with trimethylamine]	N	1 wells	4
C[C@H]1O[C@@H]2O[C@H]3[C@H](OS(=O)(=O)O)[C@@H](OS(=O)(=O)O)[C@@H](O[C@H]4[C@H](OS(=O)(=O)O)[C@@H](OS(=O)(=O)O)[C@@H](O[C@H]5[C@H](OS(=O)(=O)O)[C@@H](OS(=O)(=O)O)[C@@H](O[C@H]6[C@H](OS(=O)(=O)O)[C@@H](OS(=O)(=O)O)[C@@H](O[C@H]7[C@H](OS(=O)(=O)O)[C@@H](OS(=O)(=O)O)[C@@H](O[C@H]8[C@H](OS(=O)(=O)O)[C@@H](OS(=O)(=O)O)[C@@H](O[C@H]1[C@H](OS(=O)(=O)O)[C@H]2OS(=O)(=O)O)O[C@@H]8C)O[C@@H]7C)O[C@@H]6C)O[C@@H]5C)O[C@@H]4C)O[C@@H]3C [β-Cyclo[6-deoxy]dextrin poly(H-sulfate)poly-trimethylamine s] [6,6',6",6'",6"",6'"",6"""-Heptadeoxy-β-cyclodextrin, tetradecakis(H-sulfate), tetradecasalt with trimethylamine]	2 wells	4 wells	7
C[C@H]1O[C@@H]2O[C@H]3[C@H](OS(=O)(=O)O)[C@@H](OS(=O)(=O)O)[C@@H](O[C@H]4[C@H](OS(=O)(=O)O)[C@@H](OS(=O)(=O)O)[C@@H](O[C@H]5[C@H](OS(=O)(=O)O)[C@@H](OS(=O)(=O)O)[C@@H](O[C@H]6[C@H](OS(=O)(=O)O)[C@@H](OS(=O)(=O)O)[C@@H](O[C@H]7[C@H](OS(=O)(=O)O)[C@@H](OS(=O)(=O)O)[C@@H](O[C@H]1[C@H](OS(=O)(=O)O)[C@H]2OS(=O)(=O)O)O[C@@H]7C)O[C@@H]6C)O[C@@H]5C)O[C@@H]4C)O[C@@H]3C [α-Cyclo[6-deoxy]dextrin poly(H-sulfate)poly-trimethylamine s] [6,6',6",6'",6"",6'""-Hexadeoxy-α-cyclodextrin, dodecakis(H-sulfate), dodecasalt with trimethylamine]	N	3 wells	7
C[C@H]1O[C@@H]2O[C@H]3[C@H](OS(=O)(=O)O)[C@@H](OS(=O)(=O)O)[C@@H](O[C@H]4[C@H](OS(=O)(=O)O)[C@@H](OS(=O)(=O)O)[C@@H](O[C@H]5[C@H](OS(=O)(=O)O)[C@@H](OS(=O)(=O)O)[C@@H](O[C@H]6[C@H](OS(=O)(=O)O)[C@@H](OS(=O)(=O)O)[C@@H](O[C@H]7[C@H](OS(=O)(=O)O)[C@@H](OS(=O)(=O)O)[C@@H](O[C@H]1[C@H](OS(=O)(=O)O)[C@H]2OS(=O)(=O)O)O[C@@H]7C)O[C@@H]6C)O[C@@H]5C)O[C@@H]4C)O[C@@H]3C [α-Cyclo[6-deoxy]dextrin poly(H-sulfate)poly-sodium salt] [6,6',6",6'",6"",6'""-Hexadeoxy-α-cyclodextrin, dodecakis(H-sulfate), dodecasodium salt]	1 wells	4 wells	8
O=S(=O)(O)O[C@@H]1[C@@H](OS(=O)(=O)O)[C@H]2O[C@H]3[C@H](OS(=O)(=O)O)[C@@H](OS(=O)(=O)O)[C@@H](O[C@H]4[C@H](OS(=O)(=O)O)[C@@H](OS(=O)(=O)O)[C@@H](O[C@H]5[C@H](OS(=O)(=O)O)[C@@H](OS(=O)(=O)O)[C@@H](O[C@H]6[C@H](OS(=O)(=O)O)[C@@H](OS(=O)(=O)O)[C@@H](O[C@H]7[C@H](OS(=O)(=O)O)[C@@H](OS(=O)(=O)O)[C@@H](O[C@H]8[C@H](OS(=O)(=O)O)[C@@H](OS(=O)(=O)O)[C@@H](O[C@@H]1[C@@H](CBr)O2)O[C@@H]8CBr)O[C@@H]7CBr)O[C@@H]6CBr)O[C@@H]5CBr)O[C@@H]4CBr)O[C@@H]3CBr [β-Cyclo[6-bromo-6-dexoy]dextrin poly(H-sulfate)poly-trimethy] [6,6',6",6'",6"",6'""-Heptabromo-6,6',6",6'",6"",6'"",6"""-heptadeoxy-β-cyclodextrin tetradecakis(H-sulfate), tatradecasalt with trimethylamine]	3 wells	4 wells	6
[N-]=[N+]=NC[C@H]1O[C@@H]2O[C@H]3[C@H](OS(=O)(=O)O)[C@@H](OS(=O)(=O)O)[C@@H](O[C@H]4[C@H](OS(=O)(=O)O)[C@@H](OS(=O)(=O)O)[C@@H](O[C@H]5[C@H](OS(=O)(=O)O)[C@@H](OS(=O)(=O)O)[C@@H](O[C@H]6[C@H](OS(=O)(=O)O)[C@@H](OS(=O)(=O)O)[C@@H](O[C@H]7[C@H](OS(=O)(=O)O)[C@@H](OS(=O)(=O)O)[C@@H](O[C@H]8[C@H](OS(=O)(=O)O)[C@@H](OS(=O)(=O)O)[C@@H](O[C@H]1[C@H](OS(=O)(=O)O)[C@H]2OS(=O)(=O)O)O[C@@H]8CN=[N+]=[N-])O[C@@H]7CN=[N+]=[N-])O[C@@H]6CN=[N+]=[N-])O[C@@H]5CN=[N+]=[N-])O[C@@H]4CN=[N+]=[N-])O[C@@H]3CN=[N+]=[N-] [β-Cyclo[6-azido-6-deoxy]dextrin poly(H-sulfate)poly-trimethy] [6,6',6",6'",6"",6'"",6"""-Heptaazido-6,6',6",6'",6"",6'"",6"""-heptadeoxy-β-cyclodextrin, tetradecakis(H-sulfate), tetradecasalt with trimethylamine]	N	N	2
